Measurements: ChEMBL document CHEMBL3734655, “Identification of camphor derivatives as novel M2 ion channel inhibitors of influenza A virus” (Medchemcomm, 2015)
Calls of active or inactive are those of the source. The rule behind the calls is not given here.

How the values were obtained:
Influenza A virus [1] = experiment: Antiviral activity against M2 ion channel S31N mutant expressing amantadine-resistant Influenza A virus infected in MDCK cells preincubated for 30 mins followed by viral infection measured after 72 hrs by CCK-8 assay; format: functional, organism-based
Influenza A virus [2] = experiment: Antiviral activity against amantadine-resistant Influenza A virus (A/WSN/1933) infected in MDCK cells preincubated for 30 mins followed by viral infection measured after 72 hrs by CCK-8 assay; format: functional, organism-based; conditions: A/WSN/1933(H1N1)

SMILES: CC1(C)[C@H]2CC[C@](C)(C2)[C@H]1CN
- Activity (Influenza A virus [1]): inactive
- Activity (Influenza A virus [2]): inactive

SMILES: C[C@@H](N)[C@H]1C[C@H]2CC[C@]1(C)C2(C)C.Cl
- Activity (Influenza A virus [1]): inactive
- Activity (Influenza A virus [2]): inactive

SMILES: C[C@H]1[C@H](CN)C[C@@H]2C[C@H]1C2(C)C
- Activity (Influenza A virus [1]): inactive
- Activity (Influenza A virus [2]): inactive

SMILES: NC1CC2CCC1C2 (stereo not drawn)
- Activity (Influenza A virus [1]): inactive
- Activity (Influenza A virus [2]): inactive

SMILES: C[C@H]1[C@H](N)C[C@@H]2C[C@H]1C2(C)C
- Activity (Influenza A virus [1]): inactive
- Activity (Influenza A virus [2]): inactive

SMILES: C[C@H]1[C@H]([C@H](C)N)C[C@@H]2C[C@H]1C2(C)C
- Activity (Influenza A virus [1]): inactive
- Activity (Influenza A virus [2]): inactive

SMILES: N[C@H]1C[C@@H]2CC[C@H]1C2
- Activity (Influenza A virus [1]): inactive
- Activity (Influenza A virus [2]): inactive

SMILES: CC1(C)[C@@H]2CC[C@@]1(C)[C@@H](N)C2 (relative stereo)
- Activity (Influenza A virus [1]): inactive
- Activity (Influenza A virus [2]): inactive

SMILES: CC1(C)[C@@H]2CC[C@@]1(C)[C@@H](CN)C2
- Activity (Influenza A virus [1]): inactive
- Activity (Influenza A virus [2]): inactive
